Measurements reported in PubChem BioAssay (NCI).
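Protocol summary: plate cells (96-well), add compound at 5 concentrations, incubate 48 h, interpolate endpoints linearly. TGI: concentration producing complete growth inhibition.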

Legend:
Assay in all cases: inhibition of tumour cell growth, NCI panel, 48 h
UACC-257 melanoma = system: UACC-257 melanoma
SW-620 colon = system: SW-620 colon
IGROV1 ovarian = system: IGROV1 ovarian
NCI-H460 lung = system: NCI-H460 lung
PC-3 prostate = system: PC-3 prostate
COLO 205 colon = system: COLO 205 colon
T-47D breast = system: T-47D breast
SR leukemia = system: SR leukemia
EKVX NSCLC = system: EKVX NSCLC
RPMI-8226 leukemia = system: RPMI-8226 leukemia
HT29 colon = system: HT29 colon
OVCAR-5 ovarian = system: OVCAR-5 ovarian
786-0 renal = system: 786-0 renal
LOX IMVI melanoma = system: LOX IMVI melanoma
NCI-H23 lung = system: NCI-H23 lung
HS 578T breast = system: HS 578T breast
A549 NSCLC = system: A549 NSCLC
OVCAR-3 ovarian = system: OVCAR-3 ovarian
HCT-15 colon = system: HCT-15 colon
SK-MEL-5 melanoma = system: SK-MEL-5 melanoma
NCI/ADR-RES ovarian = system: NCI/ADR-RES ovarian
MDA-N = system: MDA-N
KM12 colon = system: KM12 colon
K-562 leukemia = system: K-562 leukemia
SNB-75 CNS = system: SNB-75 CNS
SK-MEL-28 melanoma = system: SK-MEL-28 melanoma
SN12C renal = system: SN12C renal
HCT-116 colon = system: HCT-116 colon
HCC-2998 colon = system: HCC-2998 colon
HOP-62 NSCLC = system: HOP-62 NSCLC
M14 melanoma = system: M14 melanoma
UACC-62 melanoma = system: UACC-62 melanoma
CAKI-1 renal = system: CAKI-1 renal
OVCAR-4 ovarian = system: OVCAR-4 ovarian
NCI-H226 lung = system: NCI-H226 lung
RXF 393 renal = system: RXF 393 renal
DU-145 prostate = system: DU-145 prostate
SF-268 CNS = system: SF-268 CNS
U251 CNS = system: U251 CNS
MDA-MB-435 = system: MDA-MB-435
TK-10 renal = system: TK-10 renal
MOLT-4 leukemia = system: MOLT-4 leukemia
SK-OV-3 ovarian = system: SK-OV-3 ovarian
SF-295 CNS = system: SF-295 CNS
A498 renal = system: A498 renal
ACHN renal = system: ACHN renal
MCF7 breast = system: MCF7 breast
SF-539 CNS = system: SF-539 CNS
NCI-H522 lung = system: NCI-H522 lung
SNB-19 CNS = system: SNB-19 CNS
MALME-3M melanoma = system: MALME-3M melanoma
OVCAR-8 ovarian = system: OVCAR-8 ovarian
MDA-MB-231 breast = system: MDA-MB-231 breast
HOP-92 NSCLC = system: HOP-92 NSCLC
HL-60(TB) leukemia = system: HL-60(TB) leukemia
CCRF-CEM leukemia = system: CCRF-CEM leukemia
UO-31 renal = system: UO-31 renal
SK-MEL-2 melanoma = system: SK-MEL-2 melanoma

Measured: TGI

CCOC(=O)/C(C#N)=C/c1ccc(CO)o1
> 100 µM: UACC-257 melanoma | SW-620 colon | IGROV1 ovarian | NCI-H460 lung | PC-3 prostate | COLO 205 colon | T-47D breast | SR leukemia | EKVX NSCLC | RPMI-8226 leukemia | HT29 colon | OVCAR-5 ovarian | 786-0 renal | LOX IMVI melanoma | NCI-H23 lung | HS 578T breast | A549 NSCLC | OVCAR-3 ovarian | HCT-15 colon | SK-MEL-5 melanoma | NCI/ADR-RES ovarian | MDA-N | KM12 colon | K-562 leukemia | SNB-75 CNS | SK-MEL-28 melanoma | SN12C renal | HCT-116 colon | HCC-2998 colon | HOP-62 NSCLC | M14 melanoma | UACC-62 melanoma | CAKI-1 renal | OVCAR-4 ovarian | NCI-H226 lung | RXF 393 renal | DU-145 prostate | SF-268 CNS | U251 CNS | MDA-MB-435 | TK-10 renal | MOLT-4 leukemia | SK-OV-3 ovarian | SF-295 CNS | A498 renal | ACHN renal | MCF7 breast | SF-539 CNS | NCI-H522 lung | SNB-19 CNS | MALME-3M melanoma | OVCAR-8 ovarian | MDA-MB-231 breast

N/N=C1/C(=N/O)CCc2nonc21
> 100 µM: UACC-257 melanoma | HOP-92 NSCLC | SW-620 colon | IGROV1 ovarian | NCI-H460 lung | PC-3 prostate | COLO 205 colon | T-47D breast | HL-60(TB) leukemia | SR leukemia | EKVX NSCLC | RPMI-8226 leukemia | HT29 colon | OVCAR-5 ovarian | 786-0 renal | LOX IMVI melanoma | NCI-H23 lung | HS 578T breast | A549 NSCLC | OVCAR-3 ovarian | CCRF-CEM leukemia | HCT-15 colon | SK-MEL-5 melanoma | NCI/ADR-RES ovarian | MDA-N | KM12 colon | K-562 leukemia | SNB-75 CNS | SK-MEL-28 melanoma | UO-31 renal | SN12C renal | HCT-116 colon | HCC-2998 colon | HOP-62 NSCLC | M14 melanoma | UACC-62 melanoma | CAKI-1 renal | OVCAR-4 ovarian | NCI-H226 lung | RXF 393 renal | DU-145 prostate | SF-268 CNS | U251 CNS | MDA-MB-435 | TK-10 renal | MOLT-4 leukemia | SK-OV-3 ovarian | SF-295 CNS | ACHN renal | SK-MEL-2 melanoma | MCF7 breast | SF-539 CNS | SNB-19 CNS | MALME-3M melanoma | OVCAR-8 ovarian | MDA-MB-231 breast

CN1C/C(=C\c2ccc(Cl)cc2)C(=O)/C(=C/c2ccc(Cl)cc2)C1
0.895 µM: RPMI-8226 leukemia
1.8 µM: SF-539 CNS
0.824 µM: HT29 colon
0.605 µM: OVCAR-8 ovarian
> 26.5 µM: SK-MEL-5 melanoma
> 100 µM: HOP-92 NSCLC | SW-620 colon | IGROV1 ovarian | PC-3 prostate | T-47D breast | OVCAR-5 ovarian | HS 578T breast | A549 NSCLC | K-562 leukemia | SNB-75 CNS | SK-MEL-28 melanoma | SN12C renal | HCC-2998 colon | DU-145 prostate | SF-268 CNS | MDA-MB-435 | TK-10 renal | SK-MEL-2 melanoma | SNB-19 CNS | MALME-3M melanoma
> 65.9 µM: OVCAR-4 ovarian
8.86 µM: MDA-N
> 90.6 µM: EKVX NSCLC
5.47 µM: SR leukemia
1.22 µM: RXF 393 renal
6.57 µM: OVCAR-3 ovarian
2.07 µM: SF-295 CNS
> 28.5 µM: HOP-62 NSCLC
8.7 µM: NCI-H226 lung
> 22.3 µM: NCI-H23 lung
1.37 µM: CCRF-CEM leukemia
1.26 µM: 786-0 renal
8.08 µM: MDA-MB-231 breast
2.46 µM: U251 CNS
0.482 µM: HCT-116 colon
3.2 µM: A498 renal
> 25.3 µM: ACHN renal
0.612 µM: LOX IMVI melanoma
> 27.6 µM: CAKI-1 renal
8.35 µM: UACC-62 melanoma
> 22.5 µM: NCI/ADR-RES ovarian
2.44 µM: UACC-257 melanoma
5.48 µM: M14 melanoma
5.62 µM: COLO 205 colon
4.59 µM: NCI-H460 lung
2.39 µM: KM12 colon

O=C1CCC2(CC1CCSc1ccccc1)OCCO2 (stereo unspecified)
> 100 µM: UACC-257 melanoma | HOP-92 NSCLC | SW-620 colon | IGROV1 ovarian | NCI-H460 lung | PC-3 prostate | COLO 205 colon | T-47D breast | HL-60(TB) leukemia | SR leukemia | EKVX NSCLC | RPMI-8226 leukemia | HT29 colon | OVCAR-5 ovarian | 786-0 renal | LOX IMVI melanoma | NCI-H23 lung | HS 578T breast | A549 NSCLC | OVCAR-3 ovarian | CCRF-CEM leukemia | HCT-15 colon | SK-MEL-5 melanoma | NCI/ADR-RES ovarian | MDA-N | KM12 colon | K-562 leukemia | SNB-75 CNS | SK-MEL-28 melanoma | UO-31 renal | HCC-2998 colon | HOP-62 NSCLC | M14 melanoma | UACC-62 melanoma | CAKI-1 renal | OVCAR-4 ovarian | NCI-H226 lung | RXF 393 renal | DU-145 prostate | SF-268 CNS | U251 CNS | MDA-MB-435 | TK-10 renal | MOLT-4 leukemia | SK-OV-3 ovarian | SF-295 CNS | A498 renal | ACHN renal | SK-MEL-2 melanoma | MCF7 breast | SF-539 CNS | NCI-H522 lung | SNB-19 CNS | MALME-3M melanoma | OVCAR-8 ovarian | MDA-MB-231 breast
